Data: patent publication US10065948B2, “Histone deacetylase inhibitors and compositions and methods of use thereof” (CHDI Foundation, Inc., priority 2014, dated 2018)

Key:
[1] = biological target: Histone Deacetylase 4 (HDAC4) catalytic domain (Homo sapiens (Human), UniProt P56524); experiment: Biochemical HDAC inhibition assay, fluorogenic substrate Boc-Lys(Tfa)-AMC
Description: The potency of compounds is quantified by measuring the Histone Deacetylase 4 (HDAC4) catalytic domain enzymatic activity using the fluorogenic substrate, Boc-Lys(Tfa)-AMC. The substrate is deacetylated to Boc-Lys-AMC by HDAC4. Cleavage by trypsin results in the release of the fluorophore AMC from the deacetylated substrate. The fluorescence of the sample is directly related to the histone deacetylase activity in the sample.
Stocks of 60 μL aliquots of the 10 mM compound in DMSO are prepared and stored at −20° C. From one stock aliquot of each compound to be tested and the reference compound, a 16-point serial dilution is prepared according to Table 1 using a 125 μL 16-channel Matrix multi-channel pipette (Matrix Technologies Ltd).
2 μL (200×) of each diluted solution and each control (full activity: 100% DMSO alone or full inhibition 1 mM) is stamped into V-bottomed polypropylene 384-well compound plates using either the Bravo (384-well head from Agilent) or 12.5 μL 16-channel Matrix multi-channel pipette (Matrix Technologies Ltd). Each well with the 200× compound solution is diluted 1:20 by the addition of 38 μL assay buffer+DMSO (10.5% DMSO, 45 mM Tris-HCl, 123 mM NaCl, 2.4 mM KCl, and 0.9 mM MgCl2 at pH 8.0 and equilibrated to room temperature).
The HDAC4 catalytic domain enzyme is human catalytic domain HDAC4 protein (amino acids 648-1032) with a C-terminal 6× histidine tag, produced by BioFocus. A working solution of enzyme is prepared from a 500 μg/mL stock aliquot of HDAC4 catalytic domain (thawed on ice) diluted to 0.2 μg/mL with assay buffer (50 mM Tris-HCl, 137 mM NaCl, 2.7 mM KCl, and 1 mM MgCl2 at pH 8 and equilibrated to room temperature) just prior to the addition of the enzyme to the assay.
5× (50 μM) substrate is prepared just prior to the addition to the assay. A 1 mM substrate stock is made by diluting a 100 mM Boc-Lys(Tfa)-AMC in DMSO solution 1:100 by adding it drop-wise to assay buffer (equilibrated to room temperature) while vortexing at slow speed to prevent precipitation. The 5× substrate is prepared by diluting the 1 mM substrate solution 1:20 by adding it drop-wise to assay buffer (equilibrated to room temperature) while vortexing at slow speed to prevent precipitation.
3× (30 μM) Developer/Stop Solution is prepared just prior to addition to the plate by diluting a stock solution of 10 mM reference compound 1:333 in 25 mg/mL trypsin (PAA Laboratories Ltd.) equilibrated to room temperature.
5 μL of each solution of 1:20 diluted compound from above is transferred to a clear bottomed, black, 384-well assay plate using the Bravo or the Janus (384-well MDT head from Perkin Elmer). Using a 16-channel Matrix multi-channel pipette, 35 μL of the working solution of HDAC4 catalytic domain enzyme (0.2 μg/mL in assay buffer) is transferred to the assay plate. […] The assay plate is then shaken for two minutes on an orbital shaker at 900 rpm (rotations per minute). Next the plate is incubated for 15 minutes at 37° C. The reaction is stopped by adding 25 μL of 3× (30 μM) developer/stop solution to the assay plates using either the Bravo, Janus or a 16-channel Matrix multi-channel pipette. Assay plates are then shaken for 5 minutes on an orbital shaker at 1200 rpm. Next, the assay plates are incubated at 37° C. for 1 hour in a tissue culture incubator. Finally, the fluorescence is measured (Excitation: 355 nm, Emission: 460 nm) using PerkinElmer EnVision in top read mode.

[2] = system: cellular histone deacetylase enzymatic activity in Jurkat E6-1 cells; experiment: Inhibition of cellular HDAC activity, Boc-Lys(Tfa)-AMC substrate (Cell Lys-TFA); format: cell-based; settings: Homo sapiens, Jurkat E6.1, Lys-TFA substrate
Description: The potency of the compounds is quantified by measuring the cellular histone deacetylase enzymatic activity using the fluorogenic substrate, Boc-Lys(Tfa)-AMC. After penetration in Jurkat E6-1 cells, the substrate is deacetylated to Boc-Lys-AMC. After cell lysis and cleavage by trypsin, the fluorophore AMC is released from the deacetylated substrate only. The fluorescence of the sample is directly related to the histone deacetylase activity in the sample.
Jurkat E6.1 cells are cultured according to standard cell culture protocols in Jurkat E6.1 Growth Media (RPMI without phenol red, 10% FBS, 10 mM HEPES, and 1 mM Sodium Pyruvate). Jurkat E6.1 cells are counted using a Coulter Counter and resuspended in Jurkat E6.1 growth media at a concentration of 75,000 cells/35 μL. 35 μL or 75,000 cells is seeded into Greiner microtitre assay plates. The plates are then incubated at 37° C. and 5% CO2 while other assay components are being prepared.
Stocks of 70 μL aliquots of the 10 mM compound in DMSO are prepared and stored at −20° C. From one stock aliquot of each compound to be tested and the reference compound, a 16-point serial dilution is prepared according to Table 1 using a 125 μL 16-channel Matrix multi-channel pipette.
2 μL (200×) of each diluted solution and each control (full activity: 100% DMSO alone or full inhibition 1 mM) is stamped into V-bottom polypropylene 384-well compound plates using either the Bravo, Janus, or 12.5 μL 16-channel Matrix multi-channel pipette. Each well with the 200× compound solution is diluted 1:20 by the addition of 38 μL Jurkat assay buffer+DMSO (9.5% DMSO, RPMI without phenol red, 0.09% FBS, 9 mM Hepes, and 0.9 mM Sodium Pyruvate equilibrated to room temperature)
5× (500 μM) substrate is prepared just prior to the addition to the assay. The 5× substrate is prepared by diluting a 100 mM Boc-Lys(Tfa)-AMC in DMSO solution 1:200 by adding it drop-wise to Jurkat assay medium (RPMI without phenol red, 0.1% FBS, 10 mM Hepes, and 1 mM Sodium Pyruvate equilibrated to 37° C.) while vortexing at slow speed to prevent precipitation.
10 mL of 3× lysis buffer is prepared with 8.8 ml of 3× stock lysis buffer (50 mM Tris-HCl, pH 8.0, 137 mM NaCl, 2.7 mM KCl, 1 mM MgCl2, 1% Nonidet P40 Substitute equilibrated to room temperature) and 1.2 mL of 3 mg/mL Trypsin equilibrated to room temperature.
5 μL of each solution of 1:20 diluted compound from above is transferred to the Greiner microtitre assay plates with 75,000 cells/well using the Bravo. Cells are then incubated for 2 hours at 37° C. and 5% CO2. […] The cells are then incubated for 3 hours at 37° C. and 5% CO2. Next, 25 μL of 3× lysis buffer is added to each well using either the 125 μL 16 channel pipette or the Bravo. The assay plate is then incubated overnight (15-16 hours) at 37° C. and 5% CO2. The following day, the plates are shaken on an orbital shaker for 1 minute at 900 rpm. Finally the top read fluorescence (Excitation: 355 nm, Emission: 460 nm) is measured using PerkinElmer EnVision.

[3] = system: cellular histone deacetylase activity (Lys-Ac); experiment: Inhibition of cellular HDAC activity (Cell Lys-Ac); format: cell-based; settings: Lys-Ac substrate

Sequence of Histone Deacetylase 4 (HDAC4) catalytic domain (P56524 648-1032): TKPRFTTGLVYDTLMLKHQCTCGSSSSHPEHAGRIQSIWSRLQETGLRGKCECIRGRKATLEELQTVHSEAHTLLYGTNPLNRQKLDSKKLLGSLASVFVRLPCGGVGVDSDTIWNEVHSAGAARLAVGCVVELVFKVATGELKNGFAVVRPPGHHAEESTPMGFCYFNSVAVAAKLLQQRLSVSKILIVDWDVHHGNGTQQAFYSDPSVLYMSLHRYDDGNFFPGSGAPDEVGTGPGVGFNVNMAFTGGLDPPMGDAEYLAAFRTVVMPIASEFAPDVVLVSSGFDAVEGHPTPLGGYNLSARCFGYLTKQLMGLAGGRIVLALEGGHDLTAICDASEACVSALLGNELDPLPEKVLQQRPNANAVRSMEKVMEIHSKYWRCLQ

IC50 [1] [nM] | IC50 [2] [nM] | IC50 [3] [nM] | SMILES
61 | 72 | > 50000 | Cc1c(F)cccc1[C@]1(C(=O)NO)Cc2cnn(-c3cccc(Cl)c3)c2C1 [Example 4, (S)-1-(3-Chlorophenyl)-5-(3-fluoro-2-methylphenyl)-N-hydroxy-1,4,5,6-tetrahydrocyclopenta[c]pyrazole-5-carboxamide]
53 | 99 | > 50000 | Cc1c(F)cccc1[C@]1(C(=O)NO)Cc2cnn(-c3ccc(F)cc3)c2C1 [Example 5, (S)-5-(3-Fluoro-2-methylphenyl)-1-(4-fluorophenyl)-N-hydroxy-1,4,5,6-tetrahydrocyclopenta[c]pyrazole-5-carboxamide]
44 | 67 | > 50000 | Cc1c(F)cccc1[C@]1(C(=O)NO)Cc2cnn(-c3cccc(F)c3)c2C1 [Example 6, (S)-5-(3-Fluoro-2-methylphenyl)-1-(3-fluorophenyl)-N-hydroxy-1,4,5,6-tetrahydrocyclopenta[c]pyrazole-5-carboxamide]
15 | 13 | > 50000 | Cc1c(F)cccc1[C@]1(C(=O)NO)Cc2cnn(-c3ccccc3Cl)c2C1 [Example 7, (S)-1-(2-Chlorophenyl)-5-(3-fluoro-2-methylphenyl)-N-hydroxy-1,4,5,6-tetrahydrocyclopenta[c]pyrazole-5-carboxamide]
39 | 82 | > 50000 | Cc1ccc(-n2ncc3c2C[C@](C(=O)NO)(c2cccc(F)c2C)C3)cc1 [Example 9, (S)-5-(3-Fluoro-2-methylphenyl)-N-hydroxy-1-(p-tolyl)-1,4,5,6-tetrahydrocyclopenta[c]pyrazole-5-carboxamide]
17 | 17 | > 50000 | Cc1c(F)cccc1[C@]1(C(=O)NO)Cc2cnn(-c3cccc(Cl)c3F)c2C1 [Example 10, (S)-1-(3-Chloro-2-fluorophenyl)-5-(3-fluoro-2-methylphenyl)-N-hydroxy-1,4,5,6-tetrahydrocyclopenta[c]pyrazole-5-carboxamide]
21 | 18 | > 50000 | Cc1ccc(C)c(-n2ncc3c2C[C@](C(=O)NO)(c2cccc(F)c2C)C3)c1 [Example 12, (S)-1-(2,5-Dimethylphenyl)-5-(3-fluoro-2-methylphenyl)-N-hydroxy-1,4,5,6-tetrahydrocyclopenta[c]pyrazole-5-carboxamide]
27 | 12 | > 50000 | Cc1cccc(C)c1-n1ncc2c1C[C@](C(=O)NO)(c1cccc(F)c1C)C2 [Example 13, (S)-1-(2,6-Dimethylphenyl)-5-(3-fluoro-2-methylphenyl)-N-hydroxy-1,4,5,6-tetrahydrocyclopenta[c]pyrazole-5-carboxamide]
15 | 11 | > 50000 | Cc1c(F)cccc1[C@]1(C(=O)NO)Cc2cnn(-c3c(F)cccc3Cl)c2C1 [Example 14, (S)-1-(2-Chloro-6-fluorophenyl)-5-(3-fluoro-2-methylphenyl)-N-hydroxy-1,4,5,6-tetrahydrocyclopenta[c]pyrazole-5-carboxamide]
19 | 32 | > 50000 | Cc1cccc(F)c1-n1ncc2c1C[C@](C(=O)NO)(c1cccc(F)c1C)C2 [Example 15, (S)-5-(3-Fluoro-2-methylphenyl)-1-(2-fluoro-6-methylphenyl)-N-hydroxy-1,4,5,6-tetrahydrocyclopenta[c]pyrazole-5-carboxamide]
31 | 69 | > 50000 | Cc1c(F)cccc1[C@]1(C(=O)NO)Cc2cnn(-c3ccc(F)cn3)c2C1 [Example 16, (S)-5-(3-Fluoro-2-methylphenyl)-1-(5-fluoropyridin-2-yl)-N-hydroxy-1,4,5,6-tetrahydrocyclopenta[c]pyrazole-5-carboxamide]
29 | 39 | > 50000 | Cc1c(F)cccc1[C@]1(C(=O)NO)Cc2cnn(-c3ccc(F)cc3F)c2C1 [Example 17, (S)-1-(2,4-Difluorophenyl)-5-(3-fluoro-2-methylphenyl)-N-hydroxy-1,4,5,6-tetrahydrocyclopenta[c]pyrazole-5-carboxamide]
37 | 163 | > 50000 | Cc1c(F)cccc1[C@]1(C(=O)NO)Cc2cnn(C3CCCC3)c2C1 [Example 18, (S)-1-Cyclopentyl-5-(3-fluoro-2-methylphenyl)-N-hydroxy-1,4,5,6-tetrahydrocyclopenta[c]pyrazole-5-carboxamide]
38 | 53 | > 50000 | Cc1c(F)cccc1[C@]1(C(=O)NO)Cc2cnn(-c3cnccn3)c2C1 [Example 19, (S)-5-(3-Fluoro-2-methylphenyl)-N-hydroxy-1-(pyrazin-2-yl)-1,4,5,6-tetrahydrocyclopenta[c]pyrazole-5-carboxamide]
109 | 250 | > 50000 | Cc1c(F)cccc1[C@]1(C(=O)NO)Cc2cnn(-c3ccc(OC(F)F)cc3)c2C1 [Example 20, (S)-1-(4-(Difluoromethoxy)phenyl)-5-(3-fluoro-2-methylphenyl)-N-hydroxy-1,4,5,6-tetrahydrocyclopenta[c]pyrazole-5-carboxamide]
